One data set concerns Histamin-H1. The experiment in a line: Protection against lethal histamine dihydrochloride dose (histamine H1 antagonism) in guinea pigs. It counts as in vivo, Meerschweinchen. The conditions noted are these: 10 per dose, test substance orally 1 hour before lethal Histamin-dihydrochlorid (10 mg/kg s.c.), dose protecting 50% of animals from death, probit method. The source says:
Ueberraschenderweise hat es sich gezeigt, dass die erfindungsgemässen Produkte die H1-Wirkung des Histamins zu hemmen vermögen. Die Verbindungen der allgemeinen Formel I und ihre pharmazeutisch annehmbaren Säureadditionssalze sind somit wertvolle Histamin-H antagonistische Wirkstoffe und eignen sich insbesondere zur Bekämpfung bzw. Verhütung von allergischen Reaktionen, wie beispielsweise Urtikaria, Heuschnupfen, Anaphylaxie und Arzneimittelüberempfindlichkeit. Diese Histamin-H1 antagonistischen Eigenschaften können wie nachfolgend beschrieben an männlichen und weiblichen, 240 bis 300 g schweren Meerschweinchen (SPF, Füllinsdorf) ermittelt werden:
Den Versuchstieren (10 pro Dosis) wird während 24 Stunden vor Versuchsbeginn das Futter entzogen, wobei Wasser ad libitum erhältlich ist. Eine Stunde nach oraler Verabreichung einer Lösung der Testsubstanz (10 ml/kg) erhalten die Versuchstiere eine letale Dosis von Histamin-dihydrochlorid (10 mg/kg s.c.). Ungeschützte Tiere, d.h. nur mit Histamin-dihydrochlorid behandelte Tiere, sterben innerhalb einer Stunde. Nach Auszählen der überlebenden, geschützten'Tiere wird die ED50 nach der Probitmethode ermittelt. Die ED50 ist diejenige Dosis, die notwendig ist, um 50% der mit der Testsubstanz behandelten Tiere vor dem Tod zu schützen.

The nature of data set [1]: Acute toxicity after single oral administration to mice. Conditions: mouse, in vivo, read-out: DL50 (the source's name). The source says:
Die nachfolgende Tabelle enthält für zwei repräsentative Vertreter der durch die allgemeine Formel I umfassten Verbindungsklasse die ED50-Werte, sowie Angaben über deren akute Toxizität bei einmaliger oraler Verabreichung an Mäusen (DL50 in m^g/k^g).

`Cc1cccc2c1CCC1=C(CC=CC1)C2CCCN(C)C` (stereo not shown) [A, 4,5,10,11-Tetrahydro-N,N,9-trimethyl-1H-dibenzo[a,d]-cyclohepten-5-propylamin]: in the data set on Histamin-H1, the ED50 was 0,4 mg/kg p.o. In addition, the LD50 in data set [1] lay within 600 to 1200 mg/kg.

`Cc1cccc2c1CCC1=C(CCCC1)C2CCCN(C)C` (stereo not shown) [B, 2,3,4,5,10,11-Hexahydro-N,N,9-trimethyl-1H-dibenzo-[a,d]cyclohepten-5-propylamin]: the ED50 in the data set with Histamin-H1 is listed as 0,9 mg/kg p.o. In data set [1], the LD50 is 250 to 500 mg/kg.

The record behind these values is patent EP0056616A2, “Cycloheptene derivatives, process for their preparation, and pharmaceuticals containing them” (F. HOFFMANN-LA ROCHE & CO. Aktiengesellschaft, priority 1981, dated 1982).
